From ChEMBL document CHEMBL1201862, “PubChem BioAssay data set” (2004)
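Test compounds were applied to cells in 96-well plates for 48 hours at 5 doses. The concentration for 50% growth inhibition is given as GI50.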 Calls of active or inactive are those of the source. No stated cut-off is given here; in the data, active = GI50 up to about 1.1 µM and inactive = higher.

Assays:
Assay in all cases: growth of human tumour cells (NCI), 48 h
SK-MEL-28 = tested on: SK-MEL-28
MOLT-4 = tested on: MOLT-4
CCRF-CEM = tested on: CCRF-CEM
UACC-62 = tested on: UACC-62
NCI-H460 = tested on: NCI-H460
RXF 393 = tested on: RXF 393
UO-31 = tested on: UO-31
SF-539 = tested on: SF-539
K562 = tested on: K562
RPMI-8226 = tested on: RPMI-8226
TK-10 = tested on: TK-10
LOX IMVI = tested on: LOX IMVI
HOP-92 = tested on: HOP-92
COLO 205 = tested on: COLO 205
U-251 = tested on: U-251
NCI-H522 = tested on: NCI-H522
SK-OV-3 = tested on: SK-OV-3

SMILES | GI50 (SK-MEL-28) | GI50 (MOLT-4) | GI50 (CCRF-CEM) | GI50 (UACC-62) | GI50 (NCI-H460) | GI50 (RXF 393) | GI50 (UO-31) | GI50 (SF-539) | GI50 (K562) | GI50 (RPMI-8226) | GI50 (TK-10) | GI50 (LOX IMVI) | GI50 (HOP-92) | GI50 (COLO 205) | GI50 (U-251) | GI50 (NCI-H522) | GI50 (SK-OV-3)
C/C(CC(=O)Nc1ccc(Cl)c(Cl)c1)=N/NC(=O)C[N+](C)(C)C | 0.194 µM (active) | > 100 µM (inactive) | > 100 µM (inactive) | > 100 µM (inactive) | 65.2 µM (inactive) | > 100 µM (inactive) | > 100 µM (inactive) | > 100 µM (inactive) | 46.1 µM (inactive) | 25.8 µM (inactive) | > 100 µM (inactive) | 18.1 µM (inactive) | > 100 µM (inactive) | 35.2 µM (inactive) |  |  | 
CC1=C(C(=O)CC(=O)C(=O)NC2C3CC4CC(C3)CC2C4)Sc2ccccc2N1 (configuration not stated) | > 100 µM (inactive) | 4.43 µM (inactive) |  | > 100 µM (inactive) | > 100 µM (inactive) | > 100 µM (inactive) | > 60.3 µM (inactive) | > 100 µM (inactive) | 84.3 µM (inactive) | 74.6 µM (inactive) | > 100 µM (inactive) | > 100 µM (inactive) | 20.1 µM (inactive) | > 31.6 µM (inactive) | > 100 µM (inactive) | 97.5 µM (inactive) | > 31.6 µM (inactive)
COc1cc(C2c3cc4c(cc3[C@@H](OCCN)[C@H]3COC(=O)C23)OCO4)cc(OC)c1O (some centres not stated) | 0.518 µM (active) | < 0.01 µM (active) | 0.0316 µM (active) | 0.0843 µM (active) | < 0.01 µM (active) | 0.44 µM (active) | 4.09 µM (inactive) | 0.105 µM (active) | 0.181 µM (active) |  | 2.14 µM (inactive) | 0.0434 µM (active) | 0.082 µM (active) | 1.7 µM (inactive) | 0.0405 µM (active) | 0.155 µM (active) | 0.129 µM (active)
CCCCCCCCCCCCCC(=O)OC1C(CO)OC(=O)C1O (configuration not stated) |  | > 100 µM (inactive) | 89.9 µM (inactive) | > 100 µM (inactive) | > 100 µM (inactive) | > 100 µM (inactive) | 51.8 µM (inactive) | > 100 µM (inactive) | 34.7 µM (inactive) | > 100 µM (inactive) | > 100 µM (inactive) | > 100 µM (inactive) | 26.7 µM (inactive) | > 100 µM (inactive) | 82.8 µM (inactive) |  | > 100 µM (inactive)
CCN(CC)C(=O)CC12CCCCC1=Nc1ccccc12 (configuration not stated) | > 100 µM (inactive) | > 100 µM (inactive) | > 100 µM (inactive) | > 100 µM (inactive) | > 100 µM (inactive) |  |  | > 100 µM (inactive) | > 100 µM (inactive) | > 100 µM (inactive) | > 100 µM (inactive) | > 100 µM (inactive) | 51.6 µM (inactive) | > 100 µM (inactive) | > 100 µM (inactive) |  | > 100 µM (inactive)
COc1cc([C@H]2c3cc4c(cc3[C@H](NCc3ccc([N+](=O)[O-])cc3)C3COC(=O)[C@H]32)OCO4)cc(OC)c1O (some centres not stated) | 5.45 µM (inactive) | 0.106 µM (active) | 0.251 µM (active) | 1.07 µM (active) | < 0.0282 µM (active) | 3.37 µM (inactive) | 1.79 µM (inactive) | 0.745 µM (active) | 3.18 µM (inactive) | 0.938 µM (active) | 1.96 µM (inactive) | 0.92 µM (active) | 2.81 µM (inactive) | 2.52 µM (inactive) | 0.655 µM (active) |  | 2.24 µM (inactive)
Cc1nc2c(n1Cc1ccc(Cl)cc1)C(=O)c1ccccc1C2=O | > 75 µM (inactive) | 3.14 µM (inactive) | 4.67 µM (inactive) | 3.36 µM (inactive) | 1.75 µM (inactive) | 33.9 µM (inactive) | > 75 µM (inactive) | 2.48 µM (inactive) | 2.06 µM (inactive) |  | > 75 µM (inactive) | 2.05 µM (inactive) |  | > 75 µM (inactive) | 3.48 µM (inactive) | 5.52 µM (inactive) | > 75 µM (inactive)
COc1cccc(NC(=O)/C(Cc2nc3ccccc3nc2C)=N/NC(=O)C[n+]2ccccc2)c1 | > 100 µM (inactive) | > 100 µM (inactive) | 51.5 µM (inactive) | > 100 µM (inactive) | 66.4 µM (inactive) |  | > 100 µM (inactive) | > 100 µM (inactive) | 71.9 µM (inactive) | 26.5 µM (inactive) | > 100 µM (inactive) | > 100 µM (inactive) |  | 20.8 µM (inactive) | 17.7 µM (inactive) |  | > 100 µM (inactive)
CC(C)=CC(=O)N(C)C1C2CN3CCC(O2)C13 (configuration not stated) | > 100 µM (inactive) | > 100 µM (inactive) | > 100 µM (inactive) | > 100 µM (inactive) | > 100 µM (inactive) | > 100 µM (inactive) | > 100 µM (inactive) | > 100 µM (inactive) | > 100 µM (inactive) |  | > 100 µM (inactive) | > 100 µM (inactive) |  | > 100 µM (inactive) | > 100 µM (inactive) | > 100 µM (inactive) | > 100 µM (inactive)
Cn1c(=O)nc2n(-c3ccc(Cl)cc3)c(-c3ccccc3)c(-c3ccccc3)nc-2c1=O | 25.5 µM (inactive) | 16.5 µM (inactive) | 21.9 µM (inactive) | 14.5 µM (inactive) | 24.7 µM (inactive) |  | 18.4 µM (inactive) | 23 µM (inactive) | 25.6 µM (inactive) | 22.1 µM (inactive) | 51.2 µM (inactive) |  | 16.5 µM (inactive) | 33 µM (inactive) | 27.5 µM (inactive) | 36.7 µM (inactive) | 40.3 µM (inactive)
Cc1ccc(S(=O)(=O)OCC23CCC(CC2)C2CC23)cc1 (configuration not stated) | 96.6 µM (inactive) | 35.4 µM (inactive) | 39.7 µM (inactive) | > 100 µM (inactive) | 42.4 µM (inactive) |  | 34.4 µM (inactive) |  | 39.6 µM (inactive) | 25.9 µM (inactive) | > 100 µM (inactive) | 42.7 µM (inactive) | 25.8 µM (inactive) | 61.8 µM (inactive) | 50.9 µM (inactive) |  | > 100 µM (inactive)
CCc1cccc(C)c1NC(=O)CC1C(=O)Nc2ccccc2[S+]1[O-] (configuration not stated) | 73.1 µM (inactive) | 37.1 µM (inactive) |  |  | 33.6 µM (inactive) |  | 98.2 µM (inactive) | 29.2 µM (inactive) | 24.7 µM (inactive) | 33 µM (inactive) | > 100 µM (inactive) | 44.5 µM (inactive) | 53.7 µM (inactive) | 39.2 µM (inactive) | 18.7 µM (inactive) | 31.1 µM (inactive) | 
COc1cc2c(cc1O)CN1CCC23C=C[C@@H](O)CC13 (some centres not stated) | 76.4 µM (inactive) | 45.5 µM (inactive) | 28.2 µM (inactive) | > 100 µM (inactive) | 62.8 µM (inactive) | 38.2 µM (inactive) | > 100 µM (inactive) |  | 51.3 µM (inactive) | > 100 µM (inactive) | > 100 µM (inactive) | 46.6 µM (inactive) | > 100 µM (inactive) | 27.7 µM (inactive) | 46.7 µM (inactive) | 52.4 µM (inactive) | > 100 µM (inactive)
S=C(N/N=C/c1ccco1)NC12CC3CC(CC(C3)C1)C2 | > 100 µM (inactive) | 39.4 µM (inactive) | 54.2 µM (inactive) | 29.9 µM (inactive) | 66.2 µM (inactive) | > 100 µM (inactive) | > 100 µM (inactive) | > 100 µM (inactive) | 43.8 µM (inactive) |  | 49.5 µM (inactive) | 86.5 µM (inactive) | 47 µM (inactive) | 15.3 µM (inactive) | 73.8 µM (inactive) | 36.7 µM (inactive) | > 100 µM (inactive)
CNc1nnnn1C1OC(CO)C(O)C1O (configuration not stated) |  | > 100 µM (inactive) | > 100 µM (inactive) | > 100 µM (inactive) | > 100 µM (inactive) | 43.9 µM (inactive) | > 100 µM (inactive) | > 100 µM (inactive) | > 100 µM (inactive) | > 100 µM (inactive) | > 100 µM (inactive) | > 100 µM (inactive) |  | > 100 µM (inactive) | > 100 µM (inactive) | > 100 µM (inactive) | > 100 µM (inactive)
O=C(O)C1=C(C(=O)Nc2ccc(NC(=O)C3=C(C(=O)O)C4C=CC3C4)cc2)C2C=CC1C2 | > 100 µM (inactive) | > 100 µM (inactive) | > 100 µM (inactive) | > 100 µM (inactive) | > 100 µM (inactive) | > 100 µM (inactive) | > 100 µM (inactive) | > 100 µM (inactive) | 54.5 µM (inactive) | > 100 µM (inactive) | > 100 µM (inactive) | > 100 µM (inactive) | > 100 µM (inactive) | > 100 µM (inactive) | > 100 µM (inactive) |  | > 100 µM (inactive)
CCCCOC(=O)NC(=O)c1cn(C2CCCCC2)c(=O)[nH]c1=O | 39.8 µM (inactive) | 98.6 µM (inactive) | > 100 µM (inactive) | 47.2 µM (inactive) | > 100 µM (inactive) |  | 21.3 µM (inactive) | 18.5 µM (inactive) | > 100 µM (inactive) | 60.8 µM (inactive) | 46.9 µM (inactive) | 55.2 µM (inactive) | 14.3 µM (inactive) | > 100 µM (inactive) | 28.4 µM (inactive) | 26.9 µM (inactive) | 20.9 µM (inactive)
COC(=O)C(CCCN1C(=O)c2ccccc2C1=O)C(=O)OC | > 100 µM (inactive) | > 100 µM (inactive) | > 100 µM (inactive) | > 100 µM (inactive) | > 100 µM (inactive) | > 100 µM (inactive) | > 100 µM (inactive) | > 100 µM (inactive) | > 100 µM (inactive) |  | > 100 µM (inactive) | > 100 µM (inactive) | > 100 µM (inactive) | > 100 µM (inactive) | > 100 µM (inactive) | > 100 µM (inactive) | > 100 µM (inactive)
